In ChEMBL document CHEMBL1201862, “PubChem BioAssay data set” (2004):
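Tested at 5 concentrations; 48 h exposure; 96-well plates; endpoints linearly interpolated, else capped at highest concentration. At the GI50, growth is halved.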 The source made the active and inactive calls. Rule as the data show it: active = GI50 up to about 1.1 µM and inactive = higher.

Columns and labels:
Assay in all cases: NCI-60 cell line screen, 48 h
MDA-N = tested on: MDA-N
SK-MEL-2 = tested on: SK-MEL-2
ACHN = tested on: ACHN
Malme-3M = tested on: Malme-3M
NCI/ADR-RES = tested on: NCI/ADR-RES
SF-539 = tested on: SF-539
NCI-H460 = tested on: NCI-H460
COLO 205 = tested on: COLO 205
U-251 = tested on: U-251
HCT-116 = tested on: HCT-116
PC-3 = tested on: PC-3
MDA-MB-231 = tested on: MDA-MB-231
UACC-257 = tested on: UACC-257
SN12C = tested on: SN12C
HL-60 = tested on: HL-60
SF-295 = tested on: SF-295
NCI-H226 = tested on: NCI-H226
Hs-578T = tested on: Hs-578T
NCI-H23 = tested on: NCI-H23
NCI-H522 = tested on: NCI-H522
SF-268 = tested on: SF-268
MDA-MB-435 = tested on: MDA-MB-435
UACC-62 = tested on: UACC-62
UO-31 = tested on: UO-31
MCF7 = tested on: MCF7
HCT-15 = tested on: HCT-15
RPMI-8226 = tested on: RPMI-8226
M14 = tested on: M14
SK-MEL-5 = tested on: SK-MEL-5
KM12 = tested on: KM12
SK-OV-3 = tested on: SK-OV-3
A549 = tested on: A549
786-0 = tested on: 786-0
SNB-19 = tested on: SNB-19
HT-29 = tested on: HT-29
K562 = tested on: K562
CCRF-CEM = tested on: CCRF-CEM
SK-MEL-28 = tested on: SK-MEL-28
LOX IMVI = tested on: LOX IMVI
SNB-75 = tested on: SNB-75
EKVX = tested on: EKVX
MOLT-4 = tested on: MOLT-4
HCC 2998 = tested on: HCC 2998
A498 = tested on: A498
OVCAR-5 = tested on: OVCAR-5
T47D = tested on: T47D
CAKI-1 = tested on: CAKI-1
IGROV-1 = tested on: IGROV-1
RXF 393 = tested on: RXF 393
HOP-62 = tested on: HOP-62
OVCAR-8 = tested on: OVCAR-8
OVCAR-4 = tested on: OVCAR-4
SR = tested on: SR
DU-145 = tested on: DU-145
SW-620 = tested on: SW-620
BT-549 = tested on: BT-549
HOP-92 = tested on: HOP-92
TK-10 = tested on: TK-10
OVCAR-3 = tested on: OVCAR-3

For `NC(=O)c1nnsc1NN=O`, the GI50 (MDA-N) was > 100 µM (inactive), the GI50 (SK-MEL-2) was > 100 µM (inactive) and the GI50 (ACHN) was > 100 µM (inactive). For the same compound, the GI50 (Malme-3M) was > 100 µM (inactive), the GI50 (NCI/ADR-RES) was > 100 µM (inactive) and the GI50 (SF-539) was > 100 µM (inactive). The GI50 (NCI-H460) was > 100 µM (inactive), the GI50 (COLO 205) was > 100 µM (inactive) and the GI50 (U-251) was > 100 µM (inactive). The GI50 (HCT-116) was > 100 µM (inactive), the GI50 (PC-3) was > 100 µM (inactive) and the GI50 (MDA-MB-231) was > 100 µM (inactive). For the same compound, the GI50 (UACC-257) was > 100 µM (inactive), the GI50 (SN12C) was > 100 µM (inactive) and the GI50 (HL-60) was > 100 µM (inactive). For the same compound, the GI50 (SF-295) was > 100 µM (inactive), the GI50 (NCI-H226) was > 100 µM (inactive) and the GI50 (Hs-578T) was > 100 µM (inactive). The GI50 (NCI-H23) was > 100 µM (inactive), the GI50 (NCI-H522) was > 100 µM (inactive) and the GI50 (SF-268) was > 100 µM (inactive). The GI50 (MDA-MB-435) was > 100 µM (inactive), the GI50 (UACC-62) was > 100 µM (inactive) and the GI50 (UO-31) was > 100 µM (inactive). For the same compound, the GI50 (MCF7) was > 100 µM (inactive), the GI50 (HCT-15) was over 100 µM and the GI50 (RPMI-8226) was > 100 µM (inactive). The GI50 (M14) was > 100 µM (inactive), the GI50 (SK-MEL-5) was > 100 µM (inactive) and the GI50 (KM12) was > 100 µM (inactive). For the same compound, the GI50 (SK-OV-3) was > 100 µM (inactive), the GI50 (A549) was > 100 µM (inactive) and the GI50 (786-0) was > 100 µM (inactive). The GI50 (SNB-19) was > 100 µM (inactive), the GI50 (HT-29) was > 100 µM (inactive) and the GI50 (K562) was > 100 µM (inactive). For the same compound, the GI50 (CCRF-CEM) was > 100 µM (inactive), the GI50 (SK-MEL-28) was > 100 µM (inactive) and the GI50 (LOX IMVI) was > 100 µM (inactive). The GI50 (SNB-75) was 94.8 µM (inactive), the GI50 (EKVX) was > 100 µM (inactive) and the GI50 (MOLT-4) was > 100 µM (inactive). The GI50 (HCC 2998) was > 100 µM (inactive), the GI50 (A498) was > 100 µM (inactive) and the GI50 (OVCAR-5) was > 100 µM (inactive). For the same compound, the GI50 (T47D) was > 100 µM (inactive), the GI50 (CAKI-1) was > 100 µM (inactive) and the GI50 (IGROV-1) was > 100 µM (inactive). For the same compound, the GI50 (RXF 393) was > 100 µM (inactive), the GI50 (HOP-62) was > 100 µM (inactive) and the GI50 (OVCAR-8) was > 100 µM (inactive). The GI50 (OVCAR-4) was > 100 µM (inactive), the GI50 (SR) was > 100 µM (inactive) and the GI50 (DU-145) was > 100 µM (inactive). For the same compound, the GI50 (SW-620) was > 100 µM (inactive).

With `Cn1c2ccccc2n2c(=O)c3cccnc3c(C#N)c12` the GI50 (MDA-N) was > 100 µM (inactive), the GI50 (ACHN) was 31.1 µM (inactive) and the GI50 (Malme-3M) was > 100 µM (inactive). The GI50 (NCI/ADR-RES) was 70.3 µM (inactive), the GI50 (BT-549) was 17.5 µM (inactive) and the GI50 (SF-539) was 66.4 µM (inactive). For the same compound, the GI50 (NCI-H460) was 18.7 µM (inactive), the GI50 (COLO 205) was 24.7 µM (inactive) and the GI50 (U-251) was > 100 µM (inactive). The GI50 (HCT-116) was 94.2 µM (inactive), the GI50 (MDA-MB-231) was > 100 µM (inactive) and the GI50 (UACC-257) was > 100 µM (inactive). The GI50 (SN12C) was 25.5 µM (inactive), the GI50 (SF-295) was > 100 µM (inactive) and the GI50 (NCI-H226) was 4.42 µM (inactive). For the same compound, the GI50 (NCI-H23) was 33.3 µM (inactive), the GI50 (NCI-H522) was 14.7 µM (inactive) and the GI50 (SF-268) was > 100 µM (inactive). The GI50 (MDA-MB-435) was > 100 µM (inactive), the GI50 (HOP-92) was > 100 µM (inactive) and the GI50 (HCT-15) was 37.8 µM. The GI50 (RPMI-8226) was > 100 µM (inactive), the GI50 (TK-10) was > 100 µM (inactive) and the GI50 (SK-MEL-5) was 9.51 µM (inactive). For the same compound, the GI50 (KM12) was > 100 µM (inactive), the GI50 (SK-OV-3) was > 100 µM (inactive) and the GI50 (OVCAR-3) was > 100 µM (inactive). The GI50 (786-0) was > 100 µM (inactive), the GI50 (HT-29) was 63 µM (inactive) and the GI50 (SK-MEL-28) was > 100 µM (inactive). For the same compound, the GI50 (LOX IMVI) was 39.1 µM (inactive), the GI50 (SNB-75) was > 100 µM (inactive) and the GI50 (EKVX) was > 100 µM (inactive). The GI50 (MOLT-4) was 7.45 µM (inactive), the GI50 (A498) was > 100 µM (inactive) and the GI50 (OVCAR-5) was > 100 µM (inactive). The GI50 (T47D) was > 100 µM (inactive), the GI50 (CAKI-1) was > 100 µM (inactive) and the GI50 (RXF 393) was > 100 µM (inactive). For the same compound, the GI50 (HOP-62) was 76.2 µM (inactive), the GI50 (OVCAR-8) was 40.3 µM (inactive) and the GI50 (OVCAR-4) was > 100 µM (inactive). For the same compound, the GI50 (DU-145) was > 100 µM (inactive) and the GI50 (SW-620) was 19.6 µM (inactive).

For `CSc1ccc(C(=O)C(=O)c2ccc(SC)s2)s1`, the GI50 (MDA-N) was 4.6 µM (inactive), the GI50 (SK-MEL-2) was > 10 µM (inactive) and the GI50 (ACHN) was > 10 µM (inactive). For the same compound, the GI50 (NCI/ADR-RES) was 8.45 µM (inactive), the GI50 (SF-539) was 4.85 µM (inactive) and the GI50 (NCI-H460) was > 10 µM (inactive). The GI50 (COLO 205) was > 10 µM (inactive), the GI50 (U-251) was > 10 µM (inactive) and the GI50 (HCT-116) was > 10 µM (inactive). For the same compound, the GI50 (PC-3) was > 10 µM (inactive), the GI50 (MDA-MB-231) was > 10 µM (inactive) and the GI50 (UACC-257) was > 10 µM (inactive). The GI50 (SN12C) was > 10 µM (inactive), the GI50 (HL-60) was 3.43 µM (inactive) and the GI50 (SF-295) was > 10 µM (inactive). For the same compound, the GI50 (NCI-H226) was > 10 µM (inactive), the GI50 (Hs-578T) was 3.46 µM (inactive) and the GI50 (NCI-H23) was > 10 µM (inactive). For the same compound, the GI50 (NCI-H522) was > 10 µM (inactive), the GI50 (SF-268) was > 10 µM (inactive) and the GI50 (MDA-MB-435) was 4.34 µM (inactive). The GI50 (HOP-92) was > 10 µM (inactive), the GI50 (UACC-62) was > 10 µM (inactive) and the GI50 (UO-31) was > 10 µM (inactive). The GI50 (MCF7) was 5.58 µM (inactive), the GI50 (HCT-15) was over 10 µM and the GI50 (RPMI-8226) was 4.86 µM (inactive). For the same compound, the GI50 (TK-10) was > 10 µM (inactive), the GI50 (M14) was > 10 µM (inactive) and the GI50 (SK-MEL-5) was > 10 µM (inactive). The GI50 (KM12) was > 10 µM (inactive), the GI50 (SK-OV-3) was > 10 µM (inactive) and the GI50 (A549) was > 10 µM (inactive). For the same compound, the GI50 (OVCAR-3) was > 10 µM (inactive), the GI50 (786-0) was 6.64 µM (inactive) and the GI50 (SNB-19) was > 10 µM (inactive). The GI50 (HT-29) was > 10 µM (inactive), the GI50 (K562) was 6.32 µM (inactive) and the GI50 (CCRF-CEM) was 3.15 µM (inactive). For the same compound, the GI50 (SK-MEL-28) was > 10 µM (inactive), the GI50 (LOX IMVI) was > 10 µM (inactive) and the GI50 (SNB-75) was > 10 µM (inactive). For the same compound, the GI50 (EKVX) was > 10 µM (inactive), the GI50 (MOLT-4) was 2.51 µM (inactive) and the GI50 (HCC 2998) was > 10 µM (inactive). The GI50 (OVCAR-5) was > 10 µM (inactive), the GI50 (T47D) was > 10 µM (inactive) and the GI50 (CAKI-1) was > 10 µM (inactive). The GI50 (IGROV-1) was > 10 µM (inactive), the GI50 (RXF 393) was > 10 µM (inactive) and the GI50 (HOP-62) was 3.93 µM (inactive). For the same compound, the GI50 (OVCAR-8) was > 10 µM (inactive), the GI50 (OVCAR-4) was 7.24 µM (inactive) and the GI50 (SR) was 3.92 µM (inactive). For the same compound, the GI50 (DU-145) was > 10 µM (inactive) and the GI50 (SW-620) was > 10 µM (inactive).
